Assay results: PubChem BioAssay (NCI)
Where “and” joins values, the source holds several entries; their conditions need not be identical. Equal entries are not always repeated.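 Values below derive from 48-hour exposures of cells grown in 96-well plates, with endpoints linearly interpolated between the two concentrations bracketing the appropriate inhibition level. GI50 marks 50% less growth. At the TGI there is no net growth.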

Experiments:
Assay in all cases: NCI anticancer screen, dose series, 48 h
HCT-15 colon = test system: HCT-15 colon
M14 melanoma = test system: M14 melanoma
MALME-3M melanoma = test system: MALME-3M melanoma
MOLT-4 leukemia = test system: MOLT-4 leukemia
NCI-H226 lung = test system: NCI-H226 lung
RXF 393 renal = test system: RXF 393 renal
SF-539 CNS = test system: SF-539 CNS
U251 CNS = test system: U251 CNS

| Structure (SMILES) | GI50 (HCT-15 colon) | TGI (HCT-15 colon) | GI50 (M14 melanoma) | TGI (M14 melanoma) | GI50 (MALME-3M melanoma) | TGI (MALME-3M melanoma) | GI50 (MOLT-4 leukemia) | TGI (MOLT-4 leukemia) | GI50 (NCI-H226 lung) | TGI (NCI-H226 lung) | GI50 (RXF 393 renal) | TGI (RXF 393 renal) | GI50 (SF-539 CNS) | TGI (SF-539 CNS) | GI50 (U251 CNS) | TGI (U251 CNS) |
| --- | --- | --- | --- | --- | --- | --- | --- | --- | --- | --- | --- | --- | --- | --- | --- | --- |
| O=C1/C=C/[C@@H](O)[C@@H]2C[C@@H](O)C[C@H]2/C=C/CCC[C@H](CCc2ccc(C(F)(F)F)cc2)O1 | 0.34 µM | 2.36 µM | 0.247 µM | 11.9 µM | 0.364 µM | 2.88 µM | 0.32 µM | 0.832 µM | 0.0539 µM | 0.513 µM | 0.126 µM | 0.669 µM | 0.522 µM | > 100 µM | 0.272 µM | 21.3 µM |
| CN1CCC(CNc2ccc3ncc(-c4cccc(OC(F)(F)F)c4)n3n2)CC1 | 2 µM and 2.45 µM | 4.78 µM and > 10 µM | 1.74 µM and 1.48 µM | 3.5 µM and 3.15 µM | 1.64 µM and 1.65 µM | 3.25 µM and 3.23 µM | 2.12 µM and 1.45 µM | 9.15 µM and 5.73 µM | 1.82 µM and 3.62 µM | 8.49 µM and > 10 µM | 1.44 µM and 1.72 µM | 3.68 µM and 6.48 µM | 1.68 µM and 1.51 µM | 3.47 µM and 3.11 µM | 1.6 µM and 1.44 µM | 3.23 µM and 2.97 µM |
| COc1ccc(-c2nsc3c2NC(=O)CC3c2ccc(F)cc2)cc1 (stereo unspecified) | 2.16 µM | > 100 µM | 3.74 µM | > 100 µM | 10.3 µM | > 100 µM | 0.577 µM | > 100 µM | 8.67 µM | > 100 µM | 5.91 µM | > 77.5 µM | 3.56 µM | 67.8 µM | 4 µM | > 100 µM |
| CC(C)CC1C(=O)N2CCC[C@H]2C2(O)O[C@](NC(=O)C3C=C4c5cccc6[nH]c(Br)c(c56)C[C@H]4N(C)C3)(C(C)C)C(=O)N12 (stereo partly specified) | 7.05 µM | > 100 µM | > 100 µM | > 100 µM | > 100 µM | > 100 µM | 5.06 µM | > 100 µM | 11.3 µM | > 100 µM | 4.87 µM | > 100 µM |  | > 100 µM | 9.4 µM | > 100 µM |
| Cc1cc(C(=O)Nc2nc3cccc(Cl)c3n2[C@@H]2CCCCN(C(=O)/C=C/CN(C)C)C2)ccn1 | 4.42 µM | 19.7 µM | 13.7 µM | 27.5 µM | 18.2 µM | 34 µM | 7.13 µM | 33.3 µM | 16.3 µM | 32.1 µM | 9.35 µM | 25.1 µM | 15.1 µM | 29.5 µM | 11.2 µM | 26 µM |
| C/C1=C/C(=O)O[C@@H]2C[C@@H](CC[C@H](C)/C=C\C=C\CC1)O[C@@](O)([C@@H]1CSC(=O)N1CO)C2 | 0.0689 µM | > 91.4 µM | 0.227 µM | 21.2 µM | 0.0962 µM | 21 µM | 3.42 µM | > 51.8 µM | 0.104 µM | > 100 µM | 0.0367 µM | 0.276 µM | 0.0274 µM | 12.4 µM | 0.0992 µM | 13.6 µM |
| C=C(C)[C@@H]1CC[C@]2(C(N)=O)CC[C@]3(C)[C@H](CC[C@@H]4[C@@]5(C)CC[C@H](O)C(C)(C)[C@@H]5CC[C@]43C)[C@@H]12 | 3.28 µM | 12.3 µM | 6.05 µM | > 100 µM | 2.39 µM | 8.15 µM | 3.43 µM | 18.3 µM | 4.1 µM | 17.8 µM | 2.1 µM | 5.39 µM | 1.78 µM | 3.4 µM | 2.54 µM | 7.16 µM |
